The target in assay [1] is human IL-17A / human IL-17RA (Homo sapiens (Human), UniProt Q16552). As to the kind of experiment: Human IL-17A biochemical assay (HTRF, blocking of IL-17A binding to IL-17RA). Conditions: 0.4 nM IL-17A, 0.3 nM IL-17RA, max compound concentration 10 uM. The method in brief:
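HTRF competition: 0.4 nM recombinant human IL-17A pre-incubated 3 h at room temperature with compound (top 10 uM, 2.7-fold, 10 points) in HEPES pH 7.5 buffer, then 0.3 nM IL-17RA added for 1 h, then anti-6His-Tb/anti-human IgG-XL665 detection for 1 h.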
A general note: Time-resolved FRET reads energy transfer from a long-lived donor to a nearby acceptor.

In assay [2] the test system is IL-17-induced GROα secretion from HT-29 cells. Description: GROα release assay in human colorectal adenocarcinoma epithelial cell (HT-29, ELISA). It is filed as cell-based. The note with it: Homo sapiens, HT-29, 48 h, 10 ng/mL IL-17A, highest concentration 10 μM, read-out: Cellular assay HT29 cell/CXCL1 IC50. The method in brief: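 HT-29 cells were exposed 48 h at 37°C to IL-17A (final 10 ng/mL) preincubated 15 min with compound (4-fold dilutions, top 10 μM). Secreted GROα was quantified by ELISA against a standard curve, and IC50 obtained by four-parameter fitting.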

The values that follow come from patent publication US20250154138A1, “Small Molecule IL-17A Modulators” (BeiGene, Ltd., priority 2022, published 2025).

The structures appear in SMILES notation.

Chain of human IL-17A / human IL-17RA (Q16552 24-155): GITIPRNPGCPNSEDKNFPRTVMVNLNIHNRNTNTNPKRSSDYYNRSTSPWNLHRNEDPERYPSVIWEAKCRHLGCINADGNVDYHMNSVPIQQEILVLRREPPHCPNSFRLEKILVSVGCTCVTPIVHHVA

For the compound `CNC(=O)C1(N2CC3(CC3)CNC2=O)Cc2ccc(NC(=O)[C@@H](NC(=O)c3ccnn3C3CC(O)C3)C3CCCCC3)cc2C1` (stereo partly drawn) [Example 132, N-((1S)-1-cyclohexyl-2-((2-(methylcarbamoyl)-2-(6-oxo-5,7-diazaspiro[2.5]octan-5-yl)-2,3-dihydro-1H-inden-5-yl)amino)-2-oxoethyl)-1-(3-hydroxycyclobutyl)-1H-pyrazole-5-carboxamide], the IC50 amounted to 66 nM in assay [1] and 178 nM in assay [2].

In the case of `CNC(=O)C1(N2CC3(CC3)CNC2=O)Cc2ccc(NC(=O)[C@@H](NC(=O)c3ccc(C#N)n3C3CC3)C3CCCCC3)cc2C1` (stereo partly drawn) [Example 157, 5-cyano-N-((1S)-1-cyclohexyl-2-((2-(methylcarbamoyl)-2-(6-oxo-5,7-diazaspiro[2.5]octan-5-yl)-2,3-dihydro-1H-inden-5-yl)amino)-2-oxoethyl)-1-cyclopropyl-1H-pyrrole-2-carboxamide], the IC50 in assay [1] was 37 nM; in assay [2], 398 nM.

Turning to `Cn1nccc1C(=O)N[C@H](C(=O)Nc1ccc2c(c1)CC(C(=O)Nc1cccc(F)c1)(N1CC3(CC3)CNC1=O)C2)C1CCCCC1` (stereo partly drawn) [Example 200, N-((1S)-1-cyclohexyl-2-((2-((3-fluorophenyl)carbamoyl)-2-(6-oxo-5,7-diazaspiro[2.5]octan-5-yl)-2,3-dihydro-1H-inden-5-yl)amino)-2-oxoethyl)-1-methyl-1H-pyrazole-5-carboxamide], the IC50 in assay [1] came out at 31.2 nM; in assay [2] it was 107 nM.

In the case of `CC(C)[C@@H]1CN(C2(C(=O)N[C@H](CO)C3CCCCC3)Cc3ccc(NC(=O)[C@@H](NC(=O)c4ccnn4C)C4CCCCC4)cc3C2)C(=O)N1` (stereo partly drawn) [Example 121, N-((1S)-1-cyclohexyl-2-((2-(((S)-1-cyclohexyl-2-hydroxyethyl)carbamoyl)-2-((R)-4-isopropyl-2-oxoimidazolidin-1-yl)-2,3-dihydro-1H-inden-5-yl)amino)-2-oxoethyl)-1-methyl-1H-pyrazole-5-carboxamide], the IC50 in assay [1] worked out at 16 nM; in assay [2] it was 32.3 nM.

As for `Cn1nccc1C(=O)N[C@H](C(=O)Nc1ccc2c(c1)CC(CNc1ccccc1)(N1CC3(CC3)CNC1=O)C2)C1CCCCC1` (stereo partly drawn) [Example 161, N-((1S)-1-cyclohexyl-2-oxo-2-((2-(6-oxo-5,7-diazaspiro[2.5]octan-5-yl)-2-((phenylamino)methyl)-2,3-dihydro-1H-inden-5-yl)amino)ethyl)-1-methyl-1H-pyrazole-5-carboxamide], the IC50 in assay [1] was found to be 121 nM; in assay [2], 146 nM.

As to `Cc1nonc1C(=O)N[C@H](C(=O)Nc1ccc2c(c1)CC(C(=O)Nc1cccc(Cl)c1)(N1C[C@@H](C(C)C)NC1=O)C2)C(C1CC1)C1CC1` (stereo partly drawn) [Example 259, N-((2S)-1-((2-((3-chlorophenyl)carbamoyl)-2-((R)-4-isopropyl-2-oxoimidazolidin-1-yl)-2,3-dihydro-1H-inden-5-yl)amino)-3,3-dicyclopropyl-1-oxopropan-2-yl)-4-methyl-1,2,5-oxadiazole-3-carboxamide], the IC50 in assay [1] was found to be 1020 nM; in assay [2] it was 1970 nM.

Consider `CNC(=O)C1(N2C[C@@H](C(C)C)NC2=O)Cc2ccc(NC(=O)C(NC(=O)c3ccnn3C)C3CCCC(C)C3)cc2C1` (stereo partly drawn) [Example 104, N-(2-((2-((R)-4-isopropyl-2-oxoimidazolidin-1-yl)-2-(methylcarbamoyl)-2,3-dihydro-1H-inden-5-yl)amino)-1-(3-methylcyclohexyl)-2-oxoethyl)-1-methyl-1H-pyrazole-5-carboxamide], for which the IC50 was 12 nM in assay [1] and 23.6 nM in assay [2].

Consider `CNC(=O)C1(N2CC3(CC3)CNC2=O)Cc2ccc(NC(=O)[C@@H](NC(=O)c3cccc(C#N)c3)C3CCCCC3)cc2C1` (stereo partly drawn) [Example 153, 5-((S)-2-(3-cyanobenzamido)-2-cyclohexylacetamido)-N-methyl-2-(6-oxo-5,7-diazaspiro[2.5]octan-5-yl)-2,3-dihydro-1H-indene-2-carboxamide], for which the IC50 worked out at 95 nM in assay [1] and 258 nM in assay [2].

Take `Cc1nonc1C(=O)N[C@H](C(=O)Nc1ccc2c(c1)CC(C(=O)Nc1ccccc1)(N1C[C@@H](C(C)C)NC1=O)C2)C1CCC(F)(F)CC1` (stereo partly drawn) [Example 242, N-((1S)-1-(4,4-difluorocyclohexyl)-2-((2-((R)-4-isopropyl-2-oxoimidazolidin-1-yl)-2-(phenylcarbamoyl)-2,3-dihydro-1H-inden-5-yl)amino)-2-oxoethyl)-4-methyl-1,2,5-oxadiazole-3-carboxamide]: the IC50 worked out at 250 nM in assay [1] and 652 nM in assay [2].

Turning to `CNC(=O)C1(N2CC(C3CCC3)NC2=O)Cc2ccc(NC(=O)[C@@H](NC(=O)c3ccnn3C)C3CCCCC3)cc2C1` (stereo partly drawn) [Example 27, N-((1S)-2-((2-(4-cyclobutyl-2-oxoimidazolidin-1-yl)-2-(methylcarbamoyl)-2,3-dihydro-1H-inden-5-yl)amino)-1-cyclohexyl-2-oxoethyl)-1-methyl-1H-pyrazole-5-carboxamide], the IC50 in assay [1] turned out to be 160 nM; in assay [2] it was 982 nM.

For `CNC(=O)C1(N2CC3(CCCC3)CNC2=O)Cc2ccc(NC(=O)[C@@H](NC(=O)c3ccnn3C)C3CCCCC3)cc2C1` (stereo partly drawn) [Example 147, N-((1S)-1-cyclohexyl-2-((2-(methylcarbamoyl)-2-(8-oxo-7,9-diazaspiro[4.5]decan-7-yl)-2,3-dihydro-1H-inden-5-yl)amino)-2-oxoethyl)-1-methyl-1H-pyrazole-5-carboxamide], the IC50 in assay [1] is 22.4 nM; in assay [2] it was 61.8 nM.

`Cc1nonc1C(=O)N[C@H](C(=O)Nc1ccc2c(c1)CC(C#N)(N1CC3(CC3)CNC1=O)C2)C1CCC(F)(F)CC1` (stereo partly drawn) [Example 210, N-((1S)-2-((2-cyano-2-(6-oxo-5,7-diazaspiro[2.5]octan-5-yl)-2,3-dihydro-1H-inden-5-yl)amino)-1-(4,4-difluorocyclohexyl)-2-oxoethyl)-4-methyl-1,2,5-oxadiazole-3-carboxamide]: the IC50 was found to be 91.6 nM in assay [1] and 294 nM in assay [2].

As to `Cc1nonc1C(=O)N[C@H](C(=O)Nc1ccc2c(c1)CC(C(=O)NCC(C)C1CCCCC1)(N1CC3(CC3)CNC1=O)C2)C1CCC(F)(F)CC1` (stereo partly drawn) [Example 185, N-((1S)-2-((2-((2-cyclohexylpropyl)carbamoyl)-2-(6-oxo-5,7-diazaspiro[2.5]octan-5-yl)-2,3-dihydro-1H-inden-5-yl)amino)-1-(4,4-difluorocyclohexyl)-2-oxoethyl)-4-methyl-1,2,5-oxadiazole-3-carboxamide], the values for the IC50 in assay [1] and in assay [2] were 119 nM and 275 nM, respectively.

On to `CCC(CC)OC(=O)C1(N2CC3(CC3)CNC2=O)Cc2ccc(NC(=O)[C@@H](NC(=O)c3nonc3C)C3CCC(F)(F)CC3)cc2C1` (stereo partly drawn) [Example 207, pentan-3-yl 5-((S)-2-(4,4-difluorocyclohexyl)-2-(4-methyl-1,2,5-oxadiazole-3-carboxamido)acetamido)-2-(6-oxo-5,7-diazaspiro[2.5]octan-5-yl)-2,3-dihydro-1H-indene-2-carboxylate], for which the IC50 stood at 347 nM in assay [1] and 861 nM in assay [2].

Regarding `Cc1nonc1C(=O)N[C@H](C(=O)Nc1ccc2c(c1)CC(c1cn3ncccc3n1)(N1C[C@@H](C(C)C)NC1=O)C2)C(C1CC1)C1CC1` (stereo partly drawn) [Example 246, N-((2S)-1,1-dicyclopropyl-3-((2-(imidazo[1,2-b]pyridazin-2-yl)-2-((R)-4-isopropyl-2-oxoimidazolidin-1-yl)-2,3-dihydro-1H-inden-5-yl)amino)-3-oxopropan-2-yl)-4-methyl-1,2,5-oxadiazole-3-carboxamide], the IC50 came out at 257 nM in assay [1] and 1220 nM in assay [2].
